IC50 data for 25 compounds are collected here from patent publication US20170152239A1, “BENZAMIDE AND HETEROBENZAMIDE COMPOUNDS” (PFIZER INC., priority 2012, published 2017).

Each structure is given as a SMILES string.

WT EZH2 (EZH2 4 protein complex: EZH2, EED, SUZ12, RbAp48), sequence (Q15910 whole entry): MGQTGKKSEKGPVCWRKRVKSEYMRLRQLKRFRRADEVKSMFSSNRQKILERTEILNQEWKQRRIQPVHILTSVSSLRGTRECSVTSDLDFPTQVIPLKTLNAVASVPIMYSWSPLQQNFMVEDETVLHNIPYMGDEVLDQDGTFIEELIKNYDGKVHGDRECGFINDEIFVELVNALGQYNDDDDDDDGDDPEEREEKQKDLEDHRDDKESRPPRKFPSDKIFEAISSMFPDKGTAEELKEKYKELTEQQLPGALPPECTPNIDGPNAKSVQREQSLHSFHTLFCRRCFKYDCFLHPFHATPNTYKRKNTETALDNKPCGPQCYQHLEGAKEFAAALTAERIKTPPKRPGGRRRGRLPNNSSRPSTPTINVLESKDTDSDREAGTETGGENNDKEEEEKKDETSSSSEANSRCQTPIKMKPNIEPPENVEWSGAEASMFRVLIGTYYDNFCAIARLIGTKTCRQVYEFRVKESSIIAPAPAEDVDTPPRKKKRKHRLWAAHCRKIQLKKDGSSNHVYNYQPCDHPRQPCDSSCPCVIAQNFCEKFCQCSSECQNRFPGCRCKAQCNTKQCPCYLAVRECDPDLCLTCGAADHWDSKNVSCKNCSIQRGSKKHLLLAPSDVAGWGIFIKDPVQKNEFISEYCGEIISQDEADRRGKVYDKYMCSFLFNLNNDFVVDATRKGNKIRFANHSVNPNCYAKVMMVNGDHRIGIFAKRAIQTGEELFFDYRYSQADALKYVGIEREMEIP
WT EZH2 (EZH2 4 protein complex: EZH2, EED, SUZ12, RbAp48), sequence (O75530 whole entry partner): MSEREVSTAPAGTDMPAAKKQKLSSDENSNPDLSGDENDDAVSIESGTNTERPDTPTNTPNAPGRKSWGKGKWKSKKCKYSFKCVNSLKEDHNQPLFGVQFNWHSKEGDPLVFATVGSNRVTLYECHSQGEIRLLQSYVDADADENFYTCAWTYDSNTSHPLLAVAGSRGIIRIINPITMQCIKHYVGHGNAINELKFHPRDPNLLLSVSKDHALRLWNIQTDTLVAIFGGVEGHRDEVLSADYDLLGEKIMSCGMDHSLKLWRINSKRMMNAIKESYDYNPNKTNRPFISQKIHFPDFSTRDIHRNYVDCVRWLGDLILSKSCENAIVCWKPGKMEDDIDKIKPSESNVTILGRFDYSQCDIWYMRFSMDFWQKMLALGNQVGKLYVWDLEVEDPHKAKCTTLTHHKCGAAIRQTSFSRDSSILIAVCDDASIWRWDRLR
WT EZH2 (EZH2 4 protein complex: EZH2, EED, SUZ12, RbAp48), sequence (Q15022 whole entry partner): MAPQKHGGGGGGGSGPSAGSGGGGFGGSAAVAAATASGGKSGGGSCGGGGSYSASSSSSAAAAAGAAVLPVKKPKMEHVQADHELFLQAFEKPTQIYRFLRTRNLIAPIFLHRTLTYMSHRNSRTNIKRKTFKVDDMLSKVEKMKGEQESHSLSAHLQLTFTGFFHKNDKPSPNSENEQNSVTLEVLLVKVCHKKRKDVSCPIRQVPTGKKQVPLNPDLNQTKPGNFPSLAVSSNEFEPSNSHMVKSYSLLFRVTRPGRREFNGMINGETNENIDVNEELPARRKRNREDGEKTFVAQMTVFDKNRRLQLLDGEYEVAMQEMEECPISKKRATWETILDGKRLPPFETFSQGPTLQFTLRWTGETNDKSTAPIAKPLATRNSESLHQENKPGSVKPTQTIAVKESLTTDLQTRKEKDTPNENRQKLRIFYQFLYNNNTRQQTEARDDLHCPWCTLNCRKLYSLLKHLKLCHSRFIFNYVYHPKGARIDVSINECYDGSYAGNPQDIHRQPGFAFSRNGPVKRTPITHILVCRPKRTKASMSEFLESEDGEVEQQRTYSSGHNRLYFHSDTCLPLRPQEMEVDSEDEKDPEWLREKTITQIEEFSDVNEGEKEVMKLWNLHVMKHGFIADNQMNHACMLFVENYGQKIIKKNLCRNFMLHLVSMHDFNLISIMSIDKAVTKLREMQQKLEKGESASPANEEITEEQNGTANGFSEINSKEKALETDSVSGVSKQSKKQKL
WT EZH2 (EZH2 4 protein complex: EZH2, EED, SUZ12, RbAp48), sequence (Q09028 whole entry partner): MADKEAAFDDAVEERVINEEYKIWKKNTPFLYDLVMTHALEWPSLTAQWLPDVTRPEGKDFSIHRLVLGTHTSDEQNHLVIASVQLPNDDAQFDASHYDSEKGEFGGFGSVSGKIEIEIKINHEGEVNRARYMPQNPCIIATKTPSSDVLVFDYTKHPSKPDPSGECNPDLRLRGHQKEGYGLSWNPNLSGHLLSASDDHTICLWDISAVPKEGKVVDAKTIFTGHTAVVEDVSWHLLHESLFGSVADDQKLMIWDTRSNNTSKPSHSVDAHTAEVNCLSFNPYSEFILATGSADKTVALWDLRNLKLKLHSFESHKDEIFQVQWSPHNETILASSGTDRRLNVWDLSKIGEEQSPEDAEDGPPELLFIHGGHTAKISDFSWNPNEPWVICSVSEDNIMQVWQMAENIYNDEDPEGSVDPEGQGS

The target in the test is WT EZH2 (EZH2 4 protein complex: EZH2, EED, SUZ12, RbAp48) (Homo sapiens, UniProt O75530+Q09028+Q15022+Q15910). The experiment in a line: WT EZH2 nucleosome assay. Type of test: biochemical. Conditions: nucleosome assay, 5 nM EZH2 4-protein complex, 1.5 μM SAM; read-out: WT EZH2 IC50. As to the method: Nucleosome Assay Protocol:
A. Compound preparation • 1. Prepare 10 mM stock solutions in 100% DMSO from solid material • 2. Serial dilute 10 mM compound stocks either 2 or 3-fold in 100% DMSO to generate compounds for 11 point dose response
B. Reagent preparation • 1. Prepare 1× assay buffer containing 100 mM Tris pH 8.5, 4 mM DTT and 0.01% Tween-20 • 2. Dilute purified HeLA oligonucleosomes and recombinant histone H1 (New England Biolabs) in assay buffer to 1.67×. • 3. Dilute EZH2 4 protein complex (EZH2, EED, SUZ12, RbAp48) to 3.5× in assay buffer • 4. Prepare 10×^3H SAM solution in assay buffer using 0.94 μCi/well of radioactive SAM (Perkin Elmer) and sufficient non-labeled SAM (Sigma) for 1.5 μM final concentration. • 5. Dilute TCA to 20% in DI water
C. Enzyme reaction • 1. Final reaction conditions are 5 nM EZH2 4-protein complex, 1.5 μM SAM, 25 μg/mL oligonucleosomes, 50 nM rH1 in a 50 μl reaction volume. • 2. Add 1 μl of diluted compound to the assay plate (96-well V-bottom polypropylene plates) or 1 μl of DMSO for control wells. • 3. Add 30 μl of nucleosomes to the assay plate • 4. Add 14 μl of EZH2 4 protein complex to the assay plate • 5. Add 5 μl of ^3H SAM to start the reaction. • 6. Stop the reaction after 60 minutes with the addition of 100 μl of 20% TCA • 7. Transfer 150 μl of quenched reaction into a prepared filterplate (Millipore #MSIPN4B10) • 8. Apply vacuum to the filterplate to filter the reaction mix through the membrane. • 9. Wash the filterplate with 8×200 μl of PBS, blot dry and dry in an oven for 30 minutes • 10. Add 50 μl of microscint-20 scintillation fluid (Perkin Elmer) to each well, wait 30 minutes and count on a liquid scintillation counter.
D. Data analysis • 1. IC50 values were determined by fitting the data to a 4-parameter IC50 equation using proprietary curve fitting software.
Wild type (WT) EZH2% Effect at 20 μM and IC50 values (μM) generated in WT EZH2 or EZH2PRC2 mutant Y641N nucleosome assays are provided in Table 3 below. A blank entry in the table indicates the data was not generated in that assay.
For the compound `Cc1cc(C)c(CNC(=O)c2cccc(-c3c(C)ncn3C)c2C)c(=O)[nH]1` [Example 4, 3-(1,4-dimethyl-1H-imidazol-5-yl)-N-[(4,6-dimethyl-2-oxo-1,2-dihydropyridin-3-yl)methyl]-2-methylbenzamide], the IC50 was 0.23 µM.

`CCn1ncc(C)c1-c1cccc(C(=O)NCc2c(C)cc(C)[nH]c2=O)c1C` [Example 12, N-[(4,6-dimethyl-2-oxo-1,2-dihydropyridin-3-yl)methyl]-3-(1-ethyl-4-methyl-1H-pyrazol-5-yl)-2-methylbenzamide]: the IC50 came out at 0.11 µM.

Consider `Cc1cc(C)c(CNC(=O)c2ccnc(N3CCC[C@@H]3C)c2Cl)c(=O)[nH]1` [Example 69, 3-chloro-N-[(4,6-dimethyl-2-oxo-1,2-dihydropyridin-3-yl)methyl]-2-[(2S)-2-methylpyrroli-din-1-yl]isonicotinamide], for which the IC50 came to 5.19 µM.

In the case of `Cc1cc(C)c(CNC(=O)c2cc(C3=CCOCC3)cc(-c3ccnn3C)c2C)c(=O)[nH]1` [Example 20, 5-(3,6-dihydro-2H-pyran-4-yl)-N-[(4,6-dimethyl-2-oxo-1,2-dihydropyridin-3-yl)methyl]-2-methyl-3-(1-methyl-1H-pyrazol-5-yl)benzamide], the IC50 worked out at 0.19 µM.

As for `Cc1[nH]c(=O)c(CNC(=O)c2cc(Cl)cc(-c3ccnn3C)c2C)c2c1CCCC2` [Example 84, 5-chloro-2-methyl-N-[(1-methyl-3-oxo-2,3,5,6,7,8-hexahydroiso-quinolin-4-yl)methyl]-3-(1-methyl-1H-pyrazol-5-yl)benzamide], the IC50 came out at 8.14 µM.

Regarding `Cc1cc(C)c(CNC(=O)c2nc(C3CC3)nc(N3CCC[C@@H]3C)c2C)c(=O)[nH]1` [Example 54, 2-cyclopropyl-N-[(4,6-dimethyl-2-oxo-1,2-dihydropyridin-3-yl)methyl]-5-methyl-6-[(2S)-2-methylpyrrolidin-1-yl]pyrimidine-4-carboxamide], the IC50 came to 2.83 µM.

Consider `Cc1cc(C)c(CNC(=O)c2nc(N3C[C@@H]4[C@@H](N)[C@@H]4C3)nc(-c3ccnn3C)c2C)c(=O)[nH]1` [Example 56, 2-[(1R,5S,6S)-6-amino-3-azabicyclo[3.1.0]hex-3-yl]-N-[(4,6-dimethyl-2-oxo-1,2-dihydropyridin-3-yl)methyl]-5-methyl-6-(1-methyl-1H-pyrazol-5-yl)pyrimidine-4-carboxamide], for which the IC50 is 3.18 µM.

On to `Cc1cc(C)c(CNC(=O)c2nc(OC(C)C)nc(N3CCC[C@@H]3C)c2C)c(=O)[nH]1` [Example 57, N-[(4,6-dimethyl-2-oxo-1,2-dihydropyridin-3-yl)methyl]-2-isopropoxy-5-methyl-6-[(2S)-2 - methylpyrrolidin-1-yl]pyrimidine-4-carboxamide], for which the IC50 was found to be 3.2 µM.

Consider `Cc1cc(C)c(CNC(=O)c2ncnc(N3CC[C@@H](C)C3)c2C)c(=O)[nH]1` [Example 120, N-[(4,6-dimethyl-2-oxo-1,2-dihydropyridin-3-yl)methyl]-5-methyl-6-[(3R)-3-methylpyrrolidin-1-yl]pyrimidine-4-carboxamide], for which the IC50 was 40.5 µM.

As to `Cc1cc(C)c(CNC(=O)c2ncnc(N3CCC[C@@H]3c3ccccn3)c2C)c(=O)[nH]1` [Example 144, N-[(4,6-dimethyl-2-oxo-1,2-dihydropyridin-3-yl)methyl]-5-methyl-6-[(2R)-2-pyridin-2-ylpyrrolidin-1-yl]pyrimidine-4-carboxamide], the half-maximal inhibitory concentration (IC50) is above 200 µM.

As to `Cc1cc(C)c(CNC(=O)c2nc(OCCN3CC[C@@H](F)C3)nc(-c3ccnn3C)c2C)c(=O)[nH]1` [Example 103, N-[(4,6-dimethyl-2-oxo-1,2-dihydropyridin-3-yl)methyl]-2-{2-[(3R)-3-fluoropyrrolidin-1-yl]ethoxy}-5-methyl-6-(1-methyl-1H-pyrazol-5-yl)pyrimidine-4-carboxamide], the IC50 was 19.1 µM.

Consider `COCC1CCN(c2ncnc(C(=O)NCc3c(C)cc(C)[nH]c3=O)c2C)C1` (stereo not shown) [Example 132, N-[(4,6-dimethyl-2-oxo-1,2-dihydropyridin-3-yl)methyl]-6-[3-(methoxymeth-yl)pyrrolidin-1-yl]-5-methylpyrimidine-4-carboxamide], for which the IC50 was found to be 81.4 µM.

With `Cc1cc(C)c(CNC(=O)c2cc(Cl)cc(-n3c(C)nnc3C)c2C)c(=O)[nH]1` [Example 62, 5-chloro-N-[(4,6-dimethyl-2-oxo-1,2-dihydropyridin-3-yl)methyl]-3-(3,5-dimethyl-4H-1,2,4-triazol-4-yl)-2-methylbenz-amide], the IC50 is 4.22 µM.

As for `Cc1cc(C)c(CNC(=O)c2ncnc(N3CCC[C@@H]3CO)c2C)c(=O)[nH]1` [Example 133, N-[(4,6-dimethyl-2-oxo-1,2-dihydropyridin-3-yl)methyl]-6-[(2R)-2-(hydroxymeth-yl)pyrrolidin-1-yl]-5-methylpyrimidine-4-carboxamide], the IC50 worked out at 87.5 µM.

Consider `Cc1cc(C)c(CNC(=O)c2cccc(-c3c(C)ncnc3C)c2C)c(=O)[nH]1` [Example 64, N-[(4,6-dimethyl-2-oxo-1,2-dihydropyridin-3-yl)methyl]-3-(4,6-dimethylpyrimi-din-5-yl)-2-methylbenz-amide], for which the IC50 came out at 4.42 µM.

Take `Cc1cc(C)c(CNC(=O)c2nc(O[C@H]3CCOC3)nc(-c3ccnn3C)c2C)c(=O)[nH]1` [Example 114, N-[(4,6-dimethyl-2-oxo-1,2-dihydropyridin-3-yl)methyl]-5-methyl-6-(1-methyl-1H-pyrazol-5-yl)-2-[(3S)-tetrahydro-furan-3-yloxy]pyrimidine-4-carboxamide]: the IC50 stood at 28.4 µM.

As to `CCCc1cc(C)[nH]c(=O)c1CNC(=O)c1cc(Cl)cc(-c2ccnn2C)c1C` [Example 8, 5-chloro-2-methyl-N-[(6-methyl-2-oxo-4-propyl-1,2-dihydropyridin-3-yl)methyl]-3-(1-methyl-1H-pyrazol-5-yl)benzamide], the IC50 amounted to 0.88 µM.

As to `Cc1cc(C)c(CNC(=O)c2nc(-c3cncnc3)nc(N3CCC[C@@H]3C)c2C)c(=O)[nH]1` [Example 44, N-[(4,6-dimethyl-2-oxo-1,2-dihydropyridin-3-yl)methyl]-5-methyl-6-[(2S)-2-methylpyrrolidin-1-yl]-2,5′-bipyrimidine-4-carboxamide], the IC50 was 1.41 µM.

As to `Cc1cc(C)c(CNC(=O)c2ncnc(N3CCCC3C3CC3)c2C)c(=O)[nH]1` (stereo not shown) [Example 122, 6-(2-cyclopropyl-pyrrolidin-1-yl)-N-[(4,6-dimethyl-2-oxo-1,2-dihydropyridin-3-yl)methyl]-5-methylpyrimidine-4-carboxamide], the IC50 came out at 43.6 µM.

For `Cc1cc(C)c(CNC(=O)c2cccc(-c3c(Cl)cnn3C)c2C)c(=O)[nH]1` [Example 10, 3-(4-chloro-1-methyl-1H-pyrazol-5-yl)-N-[(4,6-dimethyl-2-oxo-1,2-dihydropyridin-3-yl)methyl]-2-methylbenzamide], the IC50 amounted to 0.38 µM.

On to `Cc1cc(C)c(CNC(=O)c2ncnc(N3C4CCC3CC4)c2C)c(=O)[nH]1` [Example 83, 6-(7-azabicyclo[2.2.1]hept-7-yl)-N-[(4,6-dimethyl-2-oxo-1,2-dihydropyridin-3-yl)methyl]-5-methyl-pyrimidine-4-carobxamide], for which the IC50 was found to be 7.96 µM.

`Cc1cc(C)c(CNC(=O)c2nccc(-c3ccnn3C)c2C)c(=O)[nH]1` [Example 110, N-[(4,6-dimethyl-2-oxo-1,2-dihydropyridin-3-yl)methyl]-3-methyl-4-(1-methyl-1H-pyrazol-5-yl)pyridine-2-carboxamide]: the IC50 came out at 23.2 µM.

In the case of `COC1CCN(c2nc(C(=O)NCc3c(C)cc(C)[nH]c3=O)c(C)c(-c3ccnn3C)n2)CC1` [Example 68, N-[(4,6-dimethyl-2-oxo-1,2-dihydropyridin-3-yl)methyl]-2-(4-methoxypiperi-din-1-yl)-5-methyl-6-(1-methyl-1H-pyrazol-5-yl)pyrimidine-4-carboxamide], the half-maximal inhibitory concentration (IC50) was determined as 5.19 µM.

`Cc1cc(C)c(CNC(=O)c2nc(OCCN3CC(F)C3)nc(-c3ccnn3C)c2C)c(=O)[nH]1` [Example 109, N-[(4,6-dimethyl-2-oxo-1,2-dihydropyridin-3-yl)methyl]-2-[2-(3-fluoroazetidin-1-yl)ethoxy]-5-methyl-6-(1-methyl-1H-pyrazol-5-yl)pyrimidine-4-carboxamide]: the IC50 stood at 23 µM.

With `Cc1cc(C)c(CNC(=O)c2nc(Cl)nc(N3C4CCC3CC4)c2C)c(=O)[nH]1` [Example 40, 6-(7-azabicyclo[2.2.1]hept-7-yl)-2-chloro-N-[(4,6-dimethyl-2-oxo-1,2-dihydropyridin-3-yl)methyl]-5-methylpyrimi-dine-4-carboxamide], the IC50 stood at 1.03 µM.

The IC50 is the midpoint of a concentration-inhibition curve.
